Several values for one entry are separate records, joined by “and”; a condition that tells them apart may be missing. Identical values can stand only once.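 48-hour exposure; five concentrations; linearly interpolated endpoints. Abbreviation: GI50, concentration required for 50% inhibition of growth.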 Activity calls are given as the source filed them. No stated cut-off is given here; in the data, active = GI50 up to about 1.1 µM and inactive = higher. Non-standard residues stand in square brackets, D forms with d. Residues, ends and D or L forms follow the SMILES beside them. *: point of attachment. NMeF = CN[CH](Cc1ccccc1)C(=O)O; NMeV = CN[CH](C(=O)O)C(C)C; Boc = CC(C)(C)OC(=O)*; OBn = c1ccc(CO*)cc1
Key:
Test in all cases: inhibition of tumour cell growth, NCI panel, 48 h
M19-MEL = tested on: M19-MEL
SW-620 = tested on: SW-620
K562 = tested on: K562
DU-145 = tested on: DU-145
HOP-18 = tested on: HOP-18
SNB-75 = tested on: SNB-75
A549 = tested on: A549
NCI-H23 = tested on: NCI-H23
MCF7 = tested on: MCF7
TK-10 = tested on: TK-10
UACC-62 = tested on: UACC-62
COLO 205 = tested on: COLO 205
OVCAR-4 = tested on: OVCAR-4
Hs-578T = tested on: Hs-578T
IGROV-1 = tested on: IGROV-1
M14 = tested on: M14
NCI-H226 = tested on: NCI-H226
KM12 = tested on: KM12
NCI-H522 = tested on: NCI-H522
NCI-H460 = tested on: NCI-H460
U-251 = tested on: U-251
SF-295 = tested on: SF-295
A498 = tested on: A498
SK-MEL-5 = tested on: SK-MEL-5
LOX IMVI = tested on: LOX IMVI
Malme-3M = tested on: Malme-3M
NCI/ADR-RES = tested on: NCI/ADR-RES
UACC-257 = tested on: UACC-257
SF-268 = tested on: SF-268
786-0 = tested on: 786-0
RPMI-8226 = tested on: RPMI-8226
OVCAR-8 = tested on: OVCAR-8
SK-MEL-28 = tested on: SK-MEL-28
SF-539 = tested on: SF-539
BT-549 = tested on: BT-549
MOLT-4 = tested on: MOLT-4
ACHN = tested on: ACHN
SK-MEL-2 = tested on: SK-MEL-2
HL-60 = tested on: HL-60
HCT-15 = tested on: HCT-15
HT-29 = tested on: HT-29
CCRF-CEM = tested on: CCRF-CEM
MDA-N = tested on: MDA-N
CAKI-1 = tested on: CAKI-1
EKVX = tested on: EKVX
OVCAR-5 = tested on: OVCAR-5
MDA-MB-435 = tested on: MDA-MB-435
HOP-92 = tested on: HOP-92
SNB-19 = tested on: SNB-19
SR = tested on: SR
HCT-116 = tested on: HCT-116
SK-OV-3 = tested on: SK-OV-3
MDA-MB-231 = tested on: MDA-MB-231
T47D = tested on: T47D
HOP-62 = tested on: HOP-62
RXF 393 = tested on: RXF 393
HCC 2998 = tested on: HCC 2998
PC-3 = tested on: PC-3
OVCAR-3 = tested on: OVCAR-3
UO-31 = tested on: UO-31
SN12C = tested on: SN12C
DMS-273 = tested on: DMS-273
DMS-114 = tested on: DMS-114
LXFL 529 = tested on: LXFL 529
DLD-1 = tested on: DLD-1

Measured: GI50

O=C1C=C[C@@]23C[C@@H](NC4=C2C2=NCCc5c[nH]c(c52)C4=O)SC3=C1
inactive: M19-MEL 2.03 µM | SW-620 3.15 µM | K562 4.74 µM | DU-145 18.2 µM | HOP-18 16.7 µM | SNB-75 19.8 µM | A549 14.6 µM | NCI-H23 3.49 µM | MCF7 3.82 µM

[O-]/[N+](=C\c1ccccc1OC(=S)S)c1ccc(Cl)cc1
15.7 µM: HCT-15
active: NCI-H460 0.292 µM | SF-295 0.177 µM | SK-MEL-5 0.224 µM | HL-60 0.22 µM
inactive: TK-10 > 100 µM | UACC-62 11.9 µM | COLO 205 3.92 µM | SW-620 11.2 µM | K562 10.6 µM | OVCAR-4 13.9 µM | Hs-578T 51.1 µM | IGROV-1 12.1 µM | M14 24.2 µM | NCI-H226 48.4 µM | KM12 26.7 µM | NCI-H522 16.8 µM | U-251 19.8 µM | A498 59.8 µM | LOX IMVI 14.9 µM | Malme-3M > 100 µM | DU-145 42.9 µM | NCI/ADR-RES 18.5 µM | UACC-257 21.5 µM | SF-268 19.5 µM | 786-0 14.6 µM | RPMI-8226 5.7 µM | OVCAR-8 8.24 µM | SK-MEL-28 3.57 µM | SF-539 35.6 µM | BT-549 24.1 µM | MOLT-4 5.46 µM | ACHN 20.6 µM | SK-MEL-2 20 µM | HT-29 22.4 µM | CCRF-CEM 2.42 µM | SNB-75 > 100 µM | MDA-N 18 µM | CAKI-1 13.6 µM | EKVX 25.7 µM | OVCAR-5 21.2 µM | MDA-MB-435 15.7 µM | HOP-92 2.87 µM | SNB-19 83.4 µM | SR 21.8 µM | HCT-116 10.1 µM | SK-OV-3 > 100 µM | MDA-MB-231 13.7 µM | T47D 6.01 µM | HOP-62 47.9 µM | RXF 393 45.7 µM | A549 > 100 µM | HCC 2998 45.3 µM | PC-3 23.9 µM | OVCAR-3 18.7 µM | NCI-H23 23.8 µM | UO-31 19.8 µM | MCF7 13 µM | SN12C 24.8 µM

CC(C)C(NC(=O)OC(C)(C)C)C(=O)N(C)C(Cc1ccccc1)C(=O)N(C)C(C(=O)OCc1ccccc1)C(C)C (stereo not drawn) (Boc-Val-[NMeF]-[NMeV]-OBn; configuration not given here)
67.1 µM and 79.3 µM: HCT-15
inactive: TK-10 > 100 µM | UACC-62 81.8 µM | COLO 205 37.7 µM and 44.2 µM | SW-620 75.2 µM | IGROV-1 91.2 µM | M14 59.3 µM and 94.4 µM | NCI-H226 > 100 µM and 73.5 µM | NCI-H522 12.2 µM and 22.8 µM | NCI-H460 39 µM and 41 µM | U-251 82.2 µM and 43.8 µM | SF-295 17.6 µM and 34.6 µM | SK-MEL-5 15.4 µM | Malme-3M > 100 µM | SF-268 > 100 µM | 786-0 > 100 µM | OVCAR-8 74.6 µM and 70.5 µM | SK-MEL-28 > 100 µM | HL-60 33.4 µM and 19.5 µM | EKVX > 100 µM and 62.1 µM | DMS-273 34.1 µM and 33.8 µM | SR 27.9 µM and 22.6 µM | HCT-116 40 µM and 28.4 µM | SK-OV-3 > 100 µM | DMS-114 29.4 µM and 30.5 µM | HOP-62 85.9 µM | A549 39.5 µM and 46.8 µM | HCC 2998 > 100 µM | NCI-H23 37.1 µM and 68.5 µM | UO-31 85.3 µM and 53.1 µM

CC1OC(OC2C(OC(=O)[C@]34CCC(C)(C)C[C@H]3C3=CC[C@@H]5[C@@]6(C)CC[C@H](OC7OC(CO)C(O)C(O)C7OC7OC(CO)C(O)C(O)C7O)C(C)(C)[C@@H]6CC[C@@]5(C)[C@]3(C)CC4)OCC(O)C2O)C(O)C(OC2OCC(O)C(O)C2O)C1OC1OCC(O)C(OC2OCC(O)C(O)C2O)C1O (stereo partly specified)
22.7 µM: HCT-15
inactive: TK-10 13.4 µM | UACC-62 13.5 µM | COLO 205 2.77 µM | SW-620 15.7 µM | K562 6.55 µM | OVCAR-4 10 µM | Hs-578T 21.4 µM | IGROV-1 19.1 µM | M14 2.42 µM | NCI-H226 7.05 µM | KM12 7.31 µM | NCI-H522 3.19 µM | NCI-H460 69 µM | U-251 18.2 µM | SF-295 7.62 µM | A498 2.24 µM | SK-MEL-5 9.4 µM | LOX IMVI 16.2 µM | Malme-3M 4.46 µM | DU-145 10.5 µM | NCI/ADR-RES 11 µM | UACC-257 3.78 µM | SF-268 9.51 µM | 786-0 12.2 µM | RPMI-8226 7.69 µM | OVCAR-8 18 µM | SK-MEL-28 2.37 µM | SF-539 67.8 µM | BT-549 8.28 µM | MOLT-4 13.2 µM | ACHN 9.4 µM | SK-MEL-2 8.57 µM | HL-60 3.94 µM | HT-29 4.23 µM | CCRF-CEM 22.3 µM | SNB-75 18.7 µM | MDA-N 2.27 µM | CAKI-1 6.67 µM | EKVX 4.34 µM | OVCAR-5 8.55 µM | MDA-MB-435 2.26 µM | HOP-92 6.84 µM | SNB-19 16.7 µM | SR 5.19 µM | HCT-116 8.97 µM | SK-OV-3 32.2 µM | MDA-MB-231 7.6 µM | T47D 14.7 µM | HOP-62 14 µM | RXF 393 16.4 µM | A549 3.7 µM | HCC 2998 2.14 µM | PC-3 11.8 µM | OVCAR-3 23.4 µM | NCI-H23 6.37 µM | UO-31 2.14 µM | MCF7 7.71 µM | SN12C 2.26 µM

COc1ccc(/C=N/NC(=O)c2sc(=S)n(-c3ccccc3)c2N)cc1
inactive: TK-10 7.14 µM | UACC-62 89.1 µM | COLO 205 > 100 µM | M19-MEL > 100 µM | SW-620 > 100 µM | K562 1.48 µM | IGROV-1 > 100 µM | NCI-H226 > 100 µM | KM12 7.85 µM | NCI-H522 42.1 µM | NCI-H460 6.04 µM | U-251 66.2 µM | SF-295 19.8 µM | SK-MEL-5 71.4 µM | UACC-257 > 100 µM | SF-268 21.4 µM | OVCAR-8 44.7 µM | SK-MEL-28 33.1 µM | SF-539 6.92 µM | MOLT-4 > 100 µM | ACHN 20.7 µM | HL-60 > 100 µM | HOP-18 39.4 µM | HT-29 73.8 µM | CCRF-CEM > 100 µM | SNB-75 1.6 µM | LXFL 529 51.2 µM | OVCAR-5 > 100 µM | HOP-92 9.51 µM | SNB-19 28.1 µM | SR > 100 µM | HCT-116 91.6 µM | SK-OV-3 11.2 µM | HOP-62 22.2 µM | A549 > 100 µM | HCC 2998 73.5 µM | OVCAR-3 83.9 µM | DLD-1 > 100 µM | NCI-H23 > 100 µM | UO-31 > 100 µM

CCCCCCCCCc1cc(O)c(O)cc1CCCCCCCCC
inactive: TK-10 > 10 µM | UACC-62 > 10 µM | COLO 205 > 10 µM | SW-620 > 10 µM | K562 > 10 µM | OVCAR-4 > 10 µM | Hs-578T > 10 µM | IGROV-1 > 10 µM | M14 > 10 µM | NCI-H226 > 10 µM | KM12 > 10 µM | NCI-H522 > 10 µM | NCI-H460 > 10 µM | U-251 > 10 µM | SF-295 > 10 µM | A498 > 10 µM | SK-MEL-5 > 10 µM | LOX IMVI > 10 µM | Malme-3M > 10 µM | DU-145 > 10 µM | NCI/ADR-RES > 10 µM | UACC-257 > 10 µM | SF-268 > 10 µM | 786-0 > 10 µM | RPMI-8226 > 10 µM | OVCAR-8 > 10 µM | SK-MEL-28 > 10 µM | SF-539 > 10 µM | BT-549 > 10 µM | MOLT-4 > 10 µM | ACHN > 10 µM | SK-MEL-2 > 10 µM | HL-60 > 10 µM | HT-29 > 10 µM | CCRF-CEM > 10 µM | SNB-75 > 10 µM | MDA-N > 10 µM | CAKI-1 > 10 µM | EKVX > 10 µM | OVCAR-5 > 10 µM | MDA-MB-435 > 10 µM | HOP-92 > 10 µM | SNB-19 > 10 µM | SR > 10 µM | HCT-116 > 10 µM | SK-OV-3 > 10 µM | MDA-MB-231 > 10 µM | T47D > 10 µM | HOP-62 > 10 µM | RXF 393 > 10 µM | A549 > 10 µM | HCC 2998 > 10 µM | PC-3 > 10 µM | OVCAR-3 > 10 µM | NCI-H23 > 10 µM | UO-31 > 10 µM | MCF7 > 10 µM | SN12C > 10 µM
> 10 µM: HCT-15

From ChEMBL document CHEMBL1201862, “PubChem BioAssay data set” (2004)
